How the values were obtained:
[1] = system: dogs; settings: intravenously; cited from earlier work
[2] = system: mice; settings: intravenously; cited from earlier work
[3] = system: aldose reductase (human recombinant, expressed in SF 9 cells); assay: Aldose reductase assay, NADPH dependent reduction of glyceraldehyde; type: biochemical; settings: glyceraldehyde as substrate, 37° C., plot only, no value given
Experimental: Aldose reductase assays were as described in Nishimura C., Yamaoka T., Mizutani M., Yamashita K., Akera T., Tanimoto T., Purification And Characterization Of The Recombinant Human Aldose Reductase Expressed In Baculovirus System, Biochem. Biophys. Acta, Jun. 24, 1991; 1078(2):171-8.
Briefly, Dimesna (0-20 μM) was incubated at 37° C. with aldose reductase (0.0016 units, human recombinant, expressed in SF 9 cells) and NADPH (0.15 mM) in sodium phosphate buffer (100 mM, pH 6.2). To initiate assays, glucose (10-150 mM) was added to reactions and the decrease in absorbance at 340 nm (oxidation of NADPH) was monitored. Assays were run in duplicate or triplicate. Slopes were calculated using Varian-Cary software package 2.0 and averaged. In all cases errors were 4% or less. Lineweaver Burk analysis (Enzyme Kinetics, version 1.61) was used to calculate inhibition constants.
Aldose reductase assays were as described above. Dimesna (0-30 mM) was evaluated for its effect on the NADPH dependent reduction of glyceraldehyde (0.050-6 mM) to aldose at 37° C. Assays were run in duplicate or triplicate. Slopes were calculated using Varian-Cary software package 2.0 and averaged. In all cases errors were 4% or less. Lineweaver Burk analysis (Enzyme Kinetics, version 1.61) was used to calculate inhibition constants.

[4] = system: diabetic retinopathy; settings: humans, mainly in the 1980s; cited from earlier work

SMILES	dose administered with no adverse effects [1] [mg/kg]	dose administered with no adverse effects [2] [mg/kg]	Inhibition of Aldose Reductase (Lineweaver Burk plot) [3]	efficacy in slowing the progress of diabetic retinopathy [4]	tolerability in patients [4]
O=S(=O)([O-])CCSSCCS(=O)(=O)[O-].[Na+].[Na+] [Dimesna, disodium 2,2'-dithiobis ethane sulfonate]	> 3750	> 3750	Inhibition		
O=C1NC(=O)[C@@]2(CCOc3ccc(F)cc32)N1 [sorbinil]				some efficacy	not well tolerated

From patent US6043274A, “Method of treating diabetic cardiomyopathy” (priority 1999, dated 2000)
